Laboratory results taken from patent US6180356A (priority 1998, dated 2001).

Experiments:
[1] = tested on: diphtheria toxin translocation across Vero cell membranes; conditions: Falnes and Olsnes 1995; cited from earlier work
[2] = molecular target: T domain of diphtheria toxin (Corynephage beta, UniProt P00588); assay: biochemical; format: biochemical, Corynebacterium diphtheriae; conditions: for inhibition at 10 µM: read-out: inhibition of T domain membrane pore formation; for quenching of 3 kD CB-dextran: control without inhibitor about 70%
Sequence of T domain of diphtheria toxin (P00588 234-410 limits assumed): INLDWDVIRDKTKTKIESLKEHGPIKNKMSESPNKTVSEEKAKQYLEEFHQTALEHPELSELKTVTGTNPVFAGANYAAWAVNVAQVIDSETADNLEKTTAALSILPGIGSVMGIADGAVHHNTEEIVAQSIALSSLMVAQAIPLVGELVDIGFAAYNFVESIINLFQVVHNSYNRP

[3] = molecular target: diphtheria toxin (Corynephage beta, UniProt P00588); assay: biochemical; format: biochemical, Corynebacterium diphtheriae; conditions: for inhibition of 3 kD dextran release / pore formation: relative to release in absence of target agent; for inhibition of membrane pore formation (in words): whole diphtheria toxin; for quenching of the fluorescence of the 3 kD dextran: 10 μM inhibitor added before toxin, 3 kD CB-dextran, pH 4.5, control without agent about 75%; for inhibition at 10 µM: read-out: inhibition of 3 kD dextran release / pore formation
Sequence of diphtheria toxin (P00588 33-567 limits assumed): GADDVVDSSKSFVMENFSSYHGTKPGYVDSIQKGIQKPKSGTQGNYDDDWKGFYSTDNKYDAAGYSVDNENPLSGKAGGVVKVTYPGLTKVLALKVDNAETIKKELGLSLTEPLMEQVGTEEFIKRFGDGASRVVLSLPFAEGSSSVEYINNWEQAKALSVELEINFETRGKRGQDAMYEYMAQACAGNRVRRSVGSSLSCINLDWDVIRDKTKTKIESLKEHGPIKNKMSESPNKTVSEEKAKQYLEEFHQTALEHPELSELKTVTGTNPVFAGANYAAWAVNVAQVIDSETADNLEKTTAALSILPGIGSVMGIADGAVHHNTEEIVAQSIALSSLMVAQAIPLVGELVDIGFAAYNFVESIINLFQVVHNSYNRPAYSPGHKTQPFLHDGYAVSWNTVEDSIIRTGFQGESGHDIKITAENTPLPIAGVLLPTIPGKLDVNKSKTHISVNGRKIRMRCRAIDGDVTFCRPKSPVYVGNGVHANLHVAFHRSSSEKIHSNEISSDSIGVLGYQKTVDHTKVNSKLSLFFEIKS

[4] = 10 μM inhibitor, about 5 μg of T domain
[5] = 10 μM inhibitor, 1.0 μg of toxin

Structure (SMILES)	inhibition of diphtheria toxin translocation [1]	inhibition of T domain membrane pore formation (in words) [2, 4]	inhibition of membrane pore formation (in words) ([3]; 10 μM inhibitor)	quenching of the fluorescence of the 3 kD dextran ([3]; 1.0 μg of toxin)	other results
Nc1c(S(=O)(=O)O)cc(Nc2ccc(Nc3nc(Cl)nc(Nc4ccccc4S(=O)(=O)O)n3)c(S(=O)(=O)O)c2)c2c1C(=O)c1ccccc1C2=O [Cibacron Blue, Cibacron Blue F3G-A]	inhibitors of diphtheria toxin translocation	somewhat less inhibition	Strong inhibition		inhibition at 10 µM [2]: ~22%; quenching for all the dextrans ([3]; 10 μM inhibitor, 1.0 μg of toxin, all the dextrans): 0%; inhibition of 3 kD dextran release / pore formation [3, 5]: completely inhibited
O=C(Nc1cc(S(=O)(=O)[O-])cc2cc(S(=O)(=O)[O-])c(N=Nc3cc(Nc4nc(Cl)nc(Nc5ccc(S(=O)(=O)[O-])cc5)n4)ccc3S(=O)(=O)[O-])c(O)c12)c1ccccc1.[Na+].[Na+].[Na+].[Na+] [Cibacron Red, Cibacron brilliant red 3B-A]		strong inhibition	strong inhibition	0%	inhibition of T domain membrane pore formation ([2]; 10 μM inhibitor, about 5 μg of T domain, 3 kD CB-dextran): 87%; quenching of 3 kD CB-dextran [2, 4]: about 9%; inhibition of 3 kD dextran release / pore formation [3, 5]: 100%
O=S(=O)(O)c1cc(N=C=S)ccc1/C=C/c1ccc(N=C=S)cc1S(=O)(=O)O [DIDS]	inhibitors of diphtheria toxin translocation				
COc1cc(S(=O)(=O)O)c2ccc3c(S(=O)(=O)O)cc(S(=O)(=O)O)c4ccc1c2c43 [MPT, 8-methoxy-pyrene 1,3,6-trisulfonic acid]					diphtheria toxin pore formation inhibited (in words) ([3]; MPT as entrapped reporter, higher toxin concentrations, MPT released less than 3 kD CB-dextran): inhibited
CCN1C(=O)C=CC1=O [NEM]	inhibitors of diphtheria toxin translocation				
O=S(=O)(O)c1ccc(N=Nc2ccc(N=Nc3c(O)c(S(=O)(=O)O)cc4cc(S(=O)(=O)O)ccc34)c(S(=O)(=O)O)c2)cc1 [Ponceau S, 3-hydroxy-4-[2-sulfo-4(4-sulfophenylazo)phenylazo]-2,7-naphthalenedisulfonic acid]		strong inhibition	moderate inhibition	about 25%	quenching of 3 kD CB-dextran [2, 4]: about 20%; inhibition at 10 µM [2]: ~70%; inhibition at 10 µM [3]: ~67%
O=S(=O)([O-])c1ccc2c(N=Nc3ccc(S(=O)(=O)[O-])c4ccccc34)c(O)c(S(=O)(=O)[O-])cc2c1.[Na+].[Na+].[Na+] [amaranth, 3-Hydroxy-4-[(4-sulfo-1-naphthalenyl)azo]2,7-naphthalenedisulfonic acid trisodium salt]			weak inhibitor	about 50%	inhibition at 10 µM [3]: ~30%
